Columns and labels:
[1] = test system: BJ-fibroblasts; test: Inhibition curve on BJ-fibroblasts; format: cell-based, human; conditions: cell survival rate, 4 days, n=3
Description: hESCs-derived INS^+ cells, MSCs[43], neurons, and hepatocytes[44] were derived based on the reported protocols and re-plated on 96-well plates with Accutase digestion. Cardiomyocytes (CMs) were differentiated from H9-MYH6: mCherry reporter line, based on the reported protocol. After overnight incubation, cells were treated with DMSO or different doses of hit compounds for 4 days. After fixation, the cells were stained with markers for each cell type. DAPI was used to stain cell nuclei. Plates were analyzed by ImageXpress^MICRO Automated High-Content Analysis System.
Supplementary Figure 4. Assessment of the toxic effect of propargite on different type […]
(a) Flow cytometry char acterization of CD29+ and CD73+ mesenchymal stem cells (MSCs) derived from H1 hESCs. (b-c) microscope image (b) and flow cytometry (c) characterization of cardiomyocytes expressing MYH6+ derived from a MYH6:mCherry reporter hESC line. (d-e) Immunocytochemistry characterization of MAP2+/TUJ1+ and HuC/D+/MAP2+ neurons (d) and A1AT+/ASGPR1+ hepatocytes (e) derived from H1 hESCs. All the cells were counterstained by DAPI (blue). Scale bars, 100 µm. (f) Inhibition curve of propargite on pancreatic β-like cells, MSCs, cardiomyocytes, neurons, and hepatocytes derived from hESCs, and BJ-fibroblasts (n=3). Values presented as mean±S.D. […]

[2] = test system: primary human islets; test: Primary human islets, INS and propidium iodide staining; format: cell-based; conditions: 4 days treatment
Excerpt: Fig. 1 A high-content screen identifies propargite as a compound that induces pancreatic β-cell death. a Scheme of pancreatic β-cell differentiation and high-content chemical screen. b Chemical structure of two hit compounds: Propargite and Vacor. c Inhibitory curve and IC50 of propargite or Vacor on INS^+ and INS^− cells (n = 8). d, e Immunocytochemistry analysis (d) and survival rate (e) of H1-derived glucose-responding INS^+ and INS^− cells treated with different doses of propargite (n = 8). Pancreatic β-like cells were stained for INS (green) and all cells were counterstained by DAPI (blue). Scale bars, 100 μm. The survival rate was calculated by dividing the average number of cells in propargite-treated conditions by the average number of cells in the DMSO control. f, g Representative live images (f) and fold-change (g) of INS^w/GFP HES3-derived INS-GFP^+ cells treated with 1.6 μM propargite or DMSO control at different time points compared to initial time 0 (n = 3). Scale bars, 100 μm. h, i, j Representative images (h) and cell survival rate (i) or cell death rate (j) of DMSO or propargite-treated human primary islets (n = 3). Pancreatic β-cells were stained with the INS antibody (green) and dead cells were stained with propidium iodide (PI) (red). Scale bars, 200 μm. Scale bars for higher resolution (Zoom) images, […]. Pancreatic β-cell death rate was calculated by defining percentages of INS^+ PI^+ cells in INS^+ cells, and non-β-cell death rate was calculated by percentages of INS^−PI^+ cells in INS^− cells.

[3] = test system: MIN6 cells; test: Intracellular ROS detection; conditions: propargite-treated MIN6 cells
Description: Total intracellular ROS were detected using DCFDA-Cellular Reactive Oxygen Species Detection Assay Kit (Abcam, ab113851).
Species detection for different doses of propargite-treated MIN6 cells (n=3). 50 µM TBHP
was used as a positive control.

[4] = test system: MIN6 cells; test: MIN6 cell survival inhibitory curve; format: cell-based, mouse; conditions: cell survival rate; read-out: IC50, MIN6 cell death
[5] = test system: mDA neurons; test: Survival of hESC-derived midbrain dopamine neurons; format: cell-based, human
Description: Scale bars, 50 μm. b Relative cell survival rate of cortical- and mDA-neurons treated with DMSO or different doses of propargite. […] White arrows indicate propargite-treated mDA cells (TH; red) co-stained with the DNA damage marker (rH2AX; green), and all cells were counterstained with DAPI (blue). […] Values presented as mean ± S.D. p-value was calculated by unpaired two-tailed Student’s t-test were *p < 0.05, **p < 0.01. n.s. indicates a non-significant difference.
Cortical and mDA differentiation from hESC were done with similar protocols those published by our lab previously[36],[37].

[6] = test system: MIN6 cells; test: Western blotting of γ-H2A.X and extracellular HMGB1 in MIN6 cells; format: cell-based, mouse; conditions: time course 1 to 30 h
Excerpt: To extract intracellular protein, cells were placed on ice, washed twice with ice-cold PBS and lysed immediately with RIPA buffer (Life Technologies, 89900) supplemented with a protease inhibitor cocktail (Life Technologies, 78440). Cell lysates were then sonicated and the soluble fraction was collected after centrifugation. Protein amount was quantified by the BCA protein assay (Life Technologies, 23227). To extract extracellular HMGB1, tissue culture media were collected and concentrated using Afyon SDS-PAGE sample preparation kit (advansta, K-02101-025). 20 μg of total protein for each sample was mixed with loading buffer and incubated for 5 min at 95 °C before being loaded into NuPAGE® Novex® 4–12% […] Protein Gels (Life Technologies, NP0321BOX) for electrophoresis. Separated proteins were transferred to a PVDF membrane (Millipore, IPSN07852) after electrophoresis. The membrane was blocked with 5% non-fat milk in TBST (50 mM Tris–HCl at pH 8.0, 150 mM NaCl, 0.1% Tween 20) followed by overnight incubation with the primary antibody at 4 °C. The following antibodies were used with the dilution ratio noted: rabbit anti-HMGB1 (1:1000, Cell Signaling Technology, #6893), rabbit anti-γ-H2A.X (1:1000, Cell Signaling Technology, #9718), rabbit anti-LC3B (1:1000, Cell Signaling Technology, #3868), mouse anti-GSTT1 (1:1000, GeneTex, GTX109250), rabbit anti-GSTM1 (1:1000, R&D system, MAB6894), mouse anti-GAPDH (1:50000, Abcam, ab8245). A peroxidase conjugated horse anti-mouse IgG secondary antibody (1:20000, Vector Laboratories, PI-2000) or peroxidase conjugated goat anti-Rabbit IgG secondary antibody (1:20000, Vector Laboratories, PI-1000) was used for western blot. ECL signals were developed and detected using the SuperSignal™ West Femto Maximum Sensitivity Substrate (Life Technologies, 34094) and a C-DiGit Chemiluminescent Western Blot Scanner (LI-COR). Uncropped scans of all the blots were shown in Supplementary Fig. 7 in the Supplementary Information.

[7] = test system: EndoC-βH1 cells; test: EndoC-βH1 cells carrying sgGSTT1, PI staining; format: cell-based, human; conditions: 1.6 μM propargite
Description: Two sgRNAs targeting two different loci on GSTT1 gene: sgGSTT1-1 and sgGSTT1-2 and a sgRNA targeting GFP (sgGFP)[46] which has no specific targets on the human genome and was used as a control, were cloned into lentiCRISPRv2 vectors (Addgene plasmid # 52961)[47]. EndoC-βH1 cells were infected with the lentivirus carrying Cas9 and sgRNAs. After 2 days of selection with 1 μg/ml puromycin, western blots were used to validate the knockout efficiency.

With “2-(4-tert-butylphenoxy)-cyclohexyl prop-2-yne-1-sulfonate [propargite]” the IC50 [1] was 3000 nM, the “number of INS+ cells in primary human islets” value [2] was “decreased” and the “percentage of PI+/INS+ cells in INS+ cells” value [2] was “increased percentage”. For the same substance, the “reactive oxygen species (ROS)” value [3] was “did not find any increase”, the IC50 [4] was 1000 nM and the “mDA neuron cell death” value ([5]; concentrations at 1 and 3 μM, compared with cortical neurons) was “significant mDA neuron cell death”. The “decrease of total cell number in DA neuron cultures” value ([5]; propargite 1 µM, 3 µM) was 40-60%, the “sensitivity of GSTT1-/- hESC-derived mDA neurons vs GSTT1+/+ or GSTM1-/-” value ([5]; propargite 3 μM, FOXA2+ cells) was “more sensitive” and the “time after treatment at which γ-H2A.X was induced” value [6] was 12 h. For the same substance, the “time after treatment of detection of extracellular HMGB1” value [6] was 18 h and the “INS+ cell death in EndoC-βH1 cells expressing sgGSTT1” value [7] was “significant increase”.
